From patent US10898483B2, “Methods for inducing an immune response by promoting premature termination codon read-through” (MOONSHOT PHARMA LLC, priority 2015, dated 2021)

Legend:
normal stop codons = conditions: cited from earlier work
MC38 tumor cells = test: MC38 subcutaneous tumor model in C57BL/6 mice, tumor volume by caliper; assay type: in vivo; parameters: Percent inhibition of tumor volume: concentration or dose not given beside the values; conditions: for Percent inhibition of tumor volume: negative values indicate an increase in tumor volume; for Mean tumor volume: PTC124 20 mg/kg i.p. QD, antibodies 10 mg/kg (anti-CD8 200 ug/mouse) BIW x 3 weeks
Protocol: Animals: Female 6-8 week old (estimated age at inoculation) C57BL/6 mice were obtained from Shanghai Lingchang Bio-Technology Co. Ltd (LC, Shanghai, China). The animals were housed at 20˜26° C. with a 12 hours light and 12 hours darkness cycle.
Cell Culture: MC38 tumor cells were maintained in vitro as a monolayer culture in DMEM medium supplemented with 10% fetal bovine serum at 37° C. in an atmosphere of 5% CO2 in air. The tumor cells were routinely subcultured twice weekly. Cells in an exponential growth phase were harvested and counted for tumor inoculation.
Therapeutic compounds: Ataluren (PTC124) was obtained from Selleck Chemicals (Houston, Tex.). Anti-PD-1 and anti-CTLA-4 antibodies were obtained from BioXCell as was an anti-CD8 antibody.
Tumor Inoculation: Each mouse was inoculated subcutaneously at the right lower flank region with MC38 tumor cells (1×10^6) in 0.1 mL of PBS for tumor development. The treatments were started when the mean tumor size reaches approximately 50 mm^3. The date of tumor cell inoculation was denoted as day 0.
Group assignment: Before grouping and treatment, all animals were weighed and the tumor volumes measured using a caliper. Tumor volume was used as numeric parameter to randomize selected animals into specified groups in order to minimize systematic error. The grouping was performed by using StudyDirector™ software (Studylog Systems, Inc. CA, USA). One optimal randomization design (generated by Matched distribution) showing minimal group to group variation in tumor volume was selected for group allocation.
After tumor cell inoculation, the animals were checked daily for morbidity and mortality as well as any effects of tumor growth and treatments on normal behavior such as mobility, visual estimation of food and water consumption, body weight gain/loss, eye/hair matting and any other abnormal effect. Tumor volumes were measured twice weekly at least in two dimensions using a caliper, and the volume expressed in mm^3 using the formula: V=0.5 a×b^2 where a and b are the long and short diameters of the tumor, respectively.

[1] = tested on: CD3+ immune cells infiltrating tumor tissue; test: Immunohistochemistry of sectioned tumor tissue for immune cell infiltration; assay type: in vivo, C57BL/6 mice; conditions: FIG. 4
Protocol: Immunohistochemistry (IHC): Formalin-fixed paraffin-embedded (FFPE) tissue from tumor samples were sectioned to 4 um. Antigen retrieval (AR) was conducted at 100° C., in EDTA buffer, at pH 9.0 for 20 min. Primary antibody (diluted with validated concentration), RT 60 min+ secondary antibody (ready-to-use), RT 60 min+Bond Polymer Refine Detection.

[2] = phase-I clinical study in cystic fibrosis; cited from earlier work
[3] = tested on: intratumoral T-cell infiltrates (CD45+, CD3+, CD8+, and CD4+ cells); test: FACS analysis for intratumoral T-cell infiltrates; assay type: in vivo, C57BL/6 mice; conditions: FIG. 5
Protocol: FACS analysis: Tumor cells were isolated from each treatment group and FACS analysis performed according to methods which are well known in the art.

## O=C(O)c1cccc(-c2noc(-c3ccccc3F)n2)c1 [PTC124, 3-[5-(2-Fluorophenyl)-1,2,4-oxadiazol-3-yl]benzoic acid]
Normal stop codons
  Ribosomal read-through of normal stop codons: does not induce ribosomal read-through of normal stop codons
MC38 tumor cells; Day 9
  Percent inhibition of tumor volume: −0.96%
MC38 tumor cells; Day 9 after inoculation (randomization)
  Mean tumor volume: 52.46 mm^3
MC38 tumor cells; Day 12
  Mean tumor volume: 72.34 mm^3
  Percent inhibition of tumor volume: 13.94%
MC38 tumor cells; Day 15
  Mean tumor volume: 128.58 mm^3
  Percent inhibition of tumor volume: 1.20%
MC38 tumor cells; Day 18
  Mean tumor volume: 231.26 mm^3
  Percent inhibition of tumor volume: 19.87%
MC38 tumor cells; Day 22
  Mean tumor volume: 388.94 mm^3
  Percent inhibition of tumor volume: 18.64%
MC38 tumor cells; Day 25
  Mean tumor volume: 617.86 mm^3
  Percent inhibition of tumor volume: 22.82%
MC38 tumor cells; Day 29
  Mean tumor volume: 988.37 mm^3
  Percent inhibition of tumor volume: 21.47%
MC38 tumor cells; Day 32
  Mean tumor volume: 1459.49 mm^3
  Percent inhibition of tumor volume: 18.16%
MC38 tumor cells; MC38 tumor-bearing C57BL/6 mice, Table 6, FIGS. 1-3
  Tumor inhibition (in words): has tumor inhibition-promoting properties
[1]
  CD3+ immune cells infiltrating tumor tissue (immunohistochemical analysis): significant numbers of CD3+ immune cells infiltrating tumor tissue
[2]
  Read-through activity compared with aminoglycosides: more efficient read-through activity than aminoglycosides
  Tolerability: generally well tolerated
[3]
  Intratumoral T-cell infiltrates (CD45+, CD3+, CD8+, and CD4+ cells) by FACS: increased intratumoral T-cell infiltrates
